Experiments:
[1] = tested on: normal uninjured rat carotid arteries (medial and adventitial cell populations); test: In vivo rat carotid artery acellularity after PDT; design: species or system Sprague Dawley rats; details: for Max % rat Artery Accelularity: Table 3, drug dose 1 μMol, 50 J/cm^2, 3 days post treatment
Method in brief: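 Metallated photosensitizers light-activated in normal uninjured rat left common carotid via balloon catheter introduced through femoral arteriotomy under isoflurane; excitation 575 nm (Ga, Zn, Al, Sn) or 532 nm (Pt). Arteries harvested 3 days post-treatment, H&E-stained; medial and adventitial cell density assessed by light microscopy.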

[2] = tested on: V79 (Chinese Hamster Lung Fibroblasts) cells; test: In vitro cytotoxicity assay (light EC50, Alamar blue); type: cell-based; details: Table 3 porphyrins, 24 h drug incubation, 532 nm, 1.25 J/cm^2, read-out: In Vitro EC50 Light
Method in brief: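 V79 cells in phenol-free 5% FBS/DMEM exposed 24 h to photosensitizer at final 0.01–5.0 μM, six replicates, then washed and light-treated, with a dark plate as control. Survival by Alamar blue after 24 h dark incubation, read at 570/600 nm.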

[3] = tested on: balloon-injured pig coronary arteries; test: Pig coronary artery balloon injury model, 14 days (inhibition of neointima / intimal hyperplasia); type: in vivo; details: for average inhibition of intimal hyperplasia over the length of the injured artery: pig coronary arteries; for Intimal hyperplasia Inhibition (14 days) Av. over injury: pig coronary artery balloon injury, drug dose 3 mg/Kg, 532 nm light, 55 J, 125 J/cm2, 250 mW
Experimental: Those photosensitizers showing excellent efficacy in the rat carotid artery model were evaluated in more detail in the pig coronary artery model (Waksman, R., Rodriguez, J. C., Robinson, K. A., Cipolla, G. D., Crocker, I. R., Scott, N. A. King, S. B., Wilcox, J. N., Circulation, 96, 1944-1952, 1997). If vascular PDT is to be proposed as a therapy to prevent restenosis in humans due to angioplasty or stenting, then it must first be shown to be effective in a large animal model such as the swine. Porcine coronary arteries are very similar to human coronary arteries with regard to size, neointima formation, and thrombosis in response to injury.
The swine model has been utilized in the preclinical evaluation of interventions to reduce restenosis for several reasons. Chief among these reasons are the similarities in (i) size and anatomy of the swine arteries to human arteries, that permits instrumentation and evaluation of results via catheters; and (ii) histopathological characteristics of the proliferative response following artery injury similar to that seen in humans. Furthermore, large animals including the swine have proven to be more predictive of success in reducing restenosis in humans than have small animal models. An extensive literature search (e.g., Weiner, B. H., et al. Circulation. 72:1081-1086,1985; Schwartz, R. S., et al. Circulation. 82:2190-2200, 1990; Vascular Brachytherapy, Veenendaal, The Netherlands:Nucletron B.V. 1996 pp.1-382) supports the notion that restenosis after balloon injury in porcine coronaries is the best model when compared to restenosis in humans. Therapies investigated in other species still must be confirmed in the porcine model. Several articles reviewing the relevant animal models for the study of restenosis have concluded that although imperfect, as are all animal models, the porcine model is still the best from the standpoint of similarity to human disease, ease of use, and cost (e.g., Schwartz, R. S., Murphy, J. G., Edwards, W. D., Camrud, A. R., Vlietstra, R. E., and Holmes, D. R. Restenosis after balloon angioplasty: A practical proliferative model in the porcine coronary arteries. Circulation. 82:2190-2200, 1990; Karas, S. P., Gravanis, M. B., Santoian, E. C., Robinson, K. A., and King, S. B., 3d Coronary intimal proliferation after balloon injury and stenting in swine: an animal model of restenosis. J.Am.Coll. Cardiology 20:467-474, 1992).
Photosensitizers were administered systemically (at doses typically 2-3.5 mg/kg body weight, in a soybean phospholipid formulation) as a slow bolus injection in the ear vein. Drug treatments were followed (1-4 hr later) by endovascular light treatment (50-250 J/cm^2 fluence and 100-300 mW/cm^2 irradiance) in uninjured coronary (50-250 J/cm^2 fluence and 100-300 mW/cm^2 irradiance) and iliac (50-350 J/cm^2 fluence and 100-450 mW/cm^2 irradiance) arteries. In another set of experiments, animals also received balloon injuries in the coronary arteries at the time of PDT treatment. Angioplasty injuries in 2 coronary arteries were performed. Vital signs and cardiovascular parameters such as ECG, HR, BP, were monitored together with arterio-angiograms for measurements of vessel patency.
For longer term efficacy experiments (14 days after the PDT experiments) animals were sacrificed and serial sections of all relevant arteries (coronaries only) were harvested in 10% formalin and processed for histological assessment. Representative arterial segments underwent parafin embedding and sectioning for Hemoxylin & Eosin and/or elastin staining. Slides were prepared for microscopy histological analysis of the (i) acute cellular responses and (ii) inhibition of neointima formation following treatment. Once prepared, the slides were analyzed via microscopy for histomorphometry and effects such as medial wall acellularity, arterial wall and surrounding tissue cell death and proliferation. […]

Molecule: COC(=O)CCC1=C(C)c2cc3[n-]c(cc4nc(cc5[n-]c(cc1n2)c(CCC(=O)OC)c5C)C=C4C)cc3C.[Cl-].[Ga+3] [Example 4, Gallium Chloride Deuteroporphyrin Dimethyl Ester]
- Max % rat Artery Accelularity [1]: 95%
- EC50 [2]: 400 nM
- average inhibition of intimal hyperplasia over the length of the injured artery [3]: > 75%
- Intimal hyperplasia Inhibition (14 days) Av. over injury [3]: >70%

Molecule: CCC1=C(C)C2=[N+]3C1=Cc1c(C)c(CC)c4[n]1[Ga-2]31([Cl])[n]3c(c(C)c(CCC(=O)NC)c3=CC3=[N+]1C(=C4)C(C)=C3CCC(=O)NC)=C2 [Example 121, Gallium Chloride Mesoporphyrin N-methyl Amide]
- Max % rat Artery Accelularity [1]: 60%
- EC50 [2]: 400 nM
- average inhibition of intimal hyperplasia over the length of the injured artery ([3]; 3 mg/Kg, light fluence 125 J/cm^2): > 75%
- Intimal hyperplasia Inhibition (14 days) Av. over injury [3]: >70%

Molecule: Gallium Chloride Mesoporphyrin Dimethyl Ester [Example 1]
- Max % rat Artery Accelularity [1]: 95%
- acellularity (rat artery) ([1]; text b234, 1 μmol/Kg (printed 1 mol/Kg for 57)): 95%
- EC50 [2]: 200 nM
- average inhibition of intimal hyperplasia over the length of the injured artery [3]: > 80%
- Intimal hyperplasia Inhibition (14 days) Av. over injury [3]: >80%

Reference: patent publication US6827926B2, “Metallotetrapyrrolic photosensitizing agents for use in photodynamic therapy” (Miravant Pharmaceuticals, Inc., priority 2001, dated 2004)
